Reference: patent US20160158377A1, “BCL-XL Inhibitory Compounds and Antibody Drug Conjugates Including the Same” (AbbVie Inc., priority 2014, published 2016)
Read-outs that look alike come from different tables or passages of the source.

Legend:
Bcl-xL = Bcl-xL (Homo sapiens, UniProt Q07817); test: TR-FRET Bcl-xL binding assay (competition with probe F-Bak)
Protocol: For the assay, test compounds were serially diluted in DMSO starting at 50 μM (2× starting concentration; 10% DMSO) and 10 μL transferred into a 384-well plate. 10 μL of a protein/probe/antibody mix was then added to each well at final concentrations listed below:
The samples were then mixed on a shaker for 1 minute and incubated for an additional 2 hours at room temperature. For each assay plate, a probe/antibody and protein/antibody/probe mixture were included as a negative and a positive control, respectively. Fluorescence was measured on the Envision (Perkin Elmer) using a 340/35 nm excitation filter and 520/525 (F-Bak) and 495/510 nm (Tb-labeled anti-his antibody) emission filters. Dissociation constants (Ki) were determined using Wang's equation (Wang, 1995, FEBS Lett. 360:111-114). The TR-FRET assay can be performed in the presence of varying concentrations of human serum (HS) or fetal bovine serum (FBS). Compounds were tested both without HS and in the presence of 1% HS.

[1] = tested on: Molt-4 human acute lymphoblastic leukemia cells; test: Molt-4 cell viability assay; assay type: cell-based; settings: 10% human serum, 48 hours, CellTiter-Glo, read-out: Molt-4 Viability EC50 (nM, 10% HS)
Protocol: In one exemplary set of conditions, Molt-4 (ATCC, Manassas, Va.) human acute lymphoblastic leukemia cells were plated 12,500 cells per well in 384-well tissue culture plates (Corning, Corning, N.Y.) in a total volume of 25 μL tissue culture medium supplemented with 10% human serum (Sigma-Aldrich, St. Louis, Mo.) and treated with a 3-fold serial dilution of the compounds of interest from 10 μM to 0.0005 μM. Each concentration was tested in duplicate at least 3 separate times. The number of viable cells following 48 hours of compound treatment was determined using the CellTiter-Glo® Luminescent Cell Viability Assay according to the manufacturer's recommendations (Promega Corp., Madison, Wis.). Compounds were tested in the presence of 10% HS.

[2] = in the presence of 1% human serum (HS), read-out: Bcl-xL Binding Ki (nM, 1% HS)
[3] = without human serum, read-out: Bcl-xL Binding Ki

Sequence of Bcl-xL (Q07817 whole entry): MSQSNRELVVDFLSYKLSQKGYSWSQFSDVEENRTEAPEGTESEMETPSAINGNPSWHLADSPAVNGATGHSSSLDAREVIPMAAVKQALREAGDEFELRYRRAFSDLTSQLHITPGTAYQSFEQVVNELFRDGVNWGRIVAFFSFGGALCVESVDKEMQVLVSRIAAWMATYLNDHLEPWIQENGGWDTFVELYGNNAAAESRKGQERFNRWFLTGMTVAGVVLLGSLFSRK

| Ki (Bcl-xL; [2]) [nM] | Ki (Bcl-xL; [3]) [nM] | EC50 [1] [nM] | Compound |
| --- | --- | --- | --- |
| 0.19 | 0.038 | 14 | Cc1c(-c2ccc(N3CCc4cccc(C(=O)Nc5nc6ccccc6s5)c4C3)nc2C(=O)O)cnn1CC12CC3(C)CC(C)(C1)CC(OCCNCCS(N)(=O)=O)(C3)C2 [Compound W3.18, 6-[8-(1,3-benzothiazol-2-ylcarbamoyl)-3,4-dihydroisoquinolin-2(1H)-yl]-3-{1-[(3,5-dimethyl-7-{2-[(2-sulfamoylethyl)amino]ethoxy}tricyclo[3.3.1.1^3,7]dec-1-yl)methyl]-5-methyl-1H-pyrazol-4-yl}pyridine-2-carboxylic acid] |
| 309 | 21 | > 10000 | Cc1c(-c2ccc(N3CCc4scc(C(=O)Nc5nc6ccccc6s5)c4C3)nc2C(=O)O)cnn1CC12CC3(C)CC(C)(C1)CC(OCCN)(C3)C2 [Compound W3.19, 3-(1-{[3-(2-aminoethoxy)-5,7-dimethyltricyclo[3.3.1.1^3,7]dec-1-yl]methyl}-5-methyl-1H-pyrazol-4-yl)-6-[3-(1,3-benzothiazol-2-ylcarbamoyl)-6,7-dihydrothieno[3,2-c]pyridin-5(4H)-yl]pyridine-2-carboxylic acid] |
| 0.014 | < 0.01 | 18.2 | Cc1c(-c2ccc(N3CCn4c(C(F)(F)F)nc(C(=O)Nc5nc6ccccc6s5)c4C3)nc2C(=O)O)cnn1CC12CC3(C)CC(C)(C1)CC(OCCN)(C3)C2 [Compound W3.20, 3-(1-{[3-(2-aminoethoxy)-5,7-dimethyltricyclo[3.3.1.1^3,7]dec-1-yl]methyl}-5-methyl-1H-pyrazol-4-yl)-6-[1-(1,3-benzothiazol-2-ylcarbamoyl)-3-(trifluoromethyl)-5,6-dihydroimidazo[1,5-a]pyrazin-7(8H)-yl]pyridine-2-carboxylic acid] |
| 8.14 | 0.794 | 2210 | CNCCOC12CC3(C)CC(C)(CC(Cn4ncc(-c5ccc(N6CCc7c(N)ccc(C(=O)Nc8nc9ccccc9s8)c7C6)nc5C(=O)O)c4C)(C3)C1)C2 [Compound W3.24, 6-[5-amino-8-(1,3-benzothiazol-2-ylcarbamoyl)-3,4-dihydroisoquinolin-2(1H)-yl]-3-[1-({3,5-dimethyl-7-[2-(methylamino)ethoxy]tricyclo[3.3.1.1^3,7]dec-1-yl}methyl)-5-methyl-1H-pyrazol-4-yl]pyridine-2-carboxylic acid] |
| 0.9 | 0.138 | 424 | CNCC#Cc1cc2c(c(C(=O)Nc3nc4ccccc4s3)c1)CN(c1ccc(-c3cnn(CC45CC6(C)CC(C)(C4)CC(OCCOC)(C6)C5)c3C)c(C(=O)O)n1)CC2 [Compound W3.25, 6-[8-(1,3-benzothiazol-2-ylcarbamoyl)-6-[3-(methylamino)prop-1-yn-1-yl]-3,4-dihydroisoquinolin-2(1H)-yl]-3-(1-{[3-(2-methoxyethoxy)-5,7-dimethyltricyclo[3.3.1.1^3,7]dec-1-yl]methyl}-5-methyl-1H-pyrazol-4-yl)pyridine-2-carboxylic acid] |
| 0.083 | < 0.02 | 4.3 | CNCCOC12CC3(C)CC(C)(CC(Cn4ncc(-c5ccc(-c6ccc7cncc(C(=O)Nc8nc9ccccc9s8)c7c6)nc5C(=O)O)c4C)(C3)C1)C2 [Compound W3.26, 6-[4-(1,3-benzothiazol-2-ylcarbamoyl)isoquinolin-6-yl]-3-[1-({3,5-dimethyl-7-[2-(methylamino)ethoxy]tricyclo[3.3.1.1^3,7]dec-1-yl}methyl)-5-methyl-1H-pyrazol-4-yl]pyridine-2-carboxylic acid] |

Continued, compound first:

| Compound | Ki (Bcl-xL; [2]) [nM] | Ki (Bcl-xL; [3]) [nM] | EC50 [1] [nM] |
| --- | --- | --- | --- |
| CNCCOC12CC3(C)CC(C)(CC(Cn4ncc(-c5ccc(-c6ccc7cccc(C(=O)Nc8nc9cccnc9s8)c7c6)nc5C(=O)O)c4C)(C3)C1)C2 [Compound W3.07, 3-[1-({3,5-dimethyl-7-[2-(methylamino)ethoxy]tricyclo[3.3.1.1^3,7]dec-1-yl}methyl)-5-methyl-1H-pyrazol-4-yl]-6-[8-([1,3]thiazolo[5,4-b]pyridin-2-ylcarbamoyl)naphthalen-2-yl]pyridine-2-carboxylic acid] | 0.29 | < 0.001 | 432 |
| CNCCOC12CC3(C)CC(C)(CC(Cn4ncc(-c5ccc(-c6ccc7cccc(C(=O)Nc8nc9ncccc9s8)c7c6)nc5C(=O)O)c4C)(C3)C1)C2 [Compound W3.08, 3-[1-({3,5-dimethyl-7-[2-(methylamino)ethoxy]tricyclo[3.3.1.1^3,7]dec-1-yl}methyl)-5-methyl-1H-pyrazol-4-yl]-6-[8-([1,3]thiazolo[4,5-b]pyridin-2-ylcarbamoyl)naphthalen-2-yl]pyridine-2-carboxylic acid] | 0.013 | < 0.001 | 40 |
| CNCCOC12CC3(C)CC(C)(CC(Cn4ncc(-c5ccc(N6CCc7c(OC)ccc(C(=O)Nc8nc9ccccc9s8)c7C6)nc5C(=O)O)c4C)(C3)C1)C2 [Compound W3.09, 6-[8-(1,3-benzothiazol-2-ylcarbamoyl)-5-methoxy-3,4-dihydroisoquinolin-2(1H)-yl]-3-[1-({3,5-dimethyl-7-[2-(methylamino)ethoxy]tricyclo[3.3.1.1^3,7]dec-1-yl}methyl)-5-methyl-1H-pyrazol-4-yl]pyridine-2-carboxylic acid] | 0.14 | < 0.001 | 3.8 |
| CNCCOC12CC3(C)CC(C)(CC(Cn4ncc(-c5ccc(-c6ccc7nccc(C(=O)Nc8nc9ccccc9s8)c7c6)nc5C(=O)O)c4C)(C3)C1)C2 [Compound W3.11, 6-[4-(1,3-benzothiazol-2-ylcarbamoyl)quinolin-6-yl]-3-[1-({3,5-dimethyl-7-[2-(methylamino)ethoxy]tricyclo[3.3.1.1^3,7]dec-1-yl}methyl)-5-methyl-1H-pyrazol-4-yl]pyridine-2-carboxylic acid] | 0.94 | < 0.001 | 34.3 |
| COCCNCCOC12CC3(C)CC(C)(CC(Cn4ncc(-c5ccc(N6CCc7c(OC)ccc(C(=O)Nc8nc9ccccc9s8)c7C6)nc5C(=O)O)c4C)(C3)C1)C2 [Compound W3.12, 6-[8-(1,3-benzothiazol-2-ylcarbamoyl)-5-methoxy-3,4-dihydroisoquinolin-2(1H)-yl]-3-{1-[(3-{2-[(2-methoxyethyl)amino]ethoxy}-5,7-dimethyltricyclo[3.3.1.1^3,7]dec-1-yl)methyl]-5-methyl-1H-pyrazol-4-yl}pyridine-2-carboxylic acid] | 0.051 | 0.0042 | 2.6 |
| Cc1c(-c2ccc(N3CCc4c(C#N)ccc(C(=O)Nc5nc6ccccc6s5)c4C3)nc2C(=O)O)cnn1CC12CC3(C)CC(C)(C1)CC(OCCN)(C3)C2 [Compound W3.13, 3-(1-{[3-(2-aminoethoxy)-5,7-dimethyltricyclo[3.3.1.1^3,7]dec-1-yl]methyl}-5-methyl-1H-pyrazol-4-yl)-6-[8-(1,3-benzothiazol-2-ylcarbamoyl)-5-cyano-3,4-dihydroisoquinolin-2(1H)-yl]pyridine-2-carboxylic acid] | 6.8 | 0.013 | 2290 |
| COCCNCCOC12CC3(C)CC(C)(CC(Cn4ncc(-c5ccc(-c6ccc7c(c6)N(C(=O)Nc6nc8ccccc8s6)CCC7)nc5C(=O)O)c4C)(C3)C1)C2 [Compound W3.14, 6-[1-(1,3-benzothiazol-2-ylcarbamoyl)-1,2,3,4-tetrahydroquinolin-7-yl]-3-{1-[(3-{2-[(2-methoxyethyl)amino]ethoxy}-5,7-dimethyltricyclo[3.3.1.1^3,7]dec-1-yl)methyl]-5-methyl-1H-pyrazol-4-yl}pyridine-2-carboxylic acid] | 0.014 | < 0.001 | 1.8 |
| COCCNCCOC12CC3(C)CC(C)(CC(Cn4ncc(-c5ccc(-c6ccc7cccc(C(=O)Nc8nc9ccccc9s8)c7c6)nc5C(=O)O)c4C)(C3)C1)C2 [Compound W3.15, 6-[8-(1,3-benzothiazol-2-ylcarbamoyl)naphthalen-2-yl]-3-{1-[(3-{2-[(2-methoxyethyl)amino]ethoxy}-5,7-dimethyltricyclo[3.3.1.1^3,7]dec-1-yl)methyl]-5-methyl-1H-pyrazol-4-yl}pyridine-2-carboxylic acid] | 0.1 | < 0.001 | 2.5 |
| Cc1c(-c2ccc(N3CCc4cccc(C(=O)Nc5nc6ccccc6s5)c4C3)nc2C(=O)O)cnn1CC12CC3(C)CC(C)(C1)CC(OCCNC1COC1)(C3)C2 [Compound W3.16, 6-[8-(1,3-benzothiazol-2-ylcarbamoyl)-3,4-dihydroisoquinolin-2(1H)-yl]-3-[1-({3,5-dimethyl-7-[2-(oxetan-3-ylamino)ethoxy]tricyclo[3.3.1.1^3,7]dec-1-yl}methyl)-5-methyl-1H-pyrazol-4-yl]pyridine-2-carboxylic acid] | 0.14 | < 0.001 | 3.7 |
